# Key:
# [1] = Aqueous solubility; type: physicochemical
# [2] = tested on: E. coli ΔtolC (JW5503); experiment: MIC, broth microdilution (CLSI); type: cell-based, Escherichia coli; settings: Escherichia coli
# Method: (§1) II. Materials and Methods for Biological Experiments
# (§2) S. aureus ATCC 29213 and E. coli MG1655 were obtained from the American Type Culture Collection (ATCC). E. coli BW25113 and E. coli JW5503 were obtained from the Keio Collection. AR-bank strains were obtained from the Centers for Disease Control and Prevention and FDA Antibiotic Resistance Isolate Bank.
# (§3) Antimicrobial susceptibility tests
# (§4) Susceptibility testing was performed in biological triplicate, unless noted otherwise, using the micro-dilution broth method as outlined by the Clinical and Laboratory Standards Institute. Bacteria were cultured with cation-adjusted Mueller Hinton broth (Sigma Aldrich, catalogue number: 90922). […]
# (§5) NH3: m/z 391.2 → 171.0. Fabimycin: m/z 405.3 → 145.3. Power analysis was not used to determine the number of replicates. Error bars represent the standard error of the mean of three biological replicates. All compounds evaluated in biological assays were ≥95% pure.
# [3] = tested on: A. baumannii AR-0313; experiment: MIC, broth microdilution (CLSI); type: cell-based; settings: Acinetobacter baumannii, AR0313; A. baumannii AR-0313 clinical isolate; † = dose-independent trailing growth
# Method: as §1, §2, §3, §4
# (§6) Error bars represent the standard error of the mean of three biological replicates. All compounds evaluated in biological assays were ≥95% pure.
# [4] = tested on: K. pneumoniae AR-0113; experiment: MIC, broth microdilution (CLSI); type: cell-based; settings: Klebsiella pneumoniae, AR0113; K. pneumoniae AR-0113 clinical isolate
# Method: as §1, §2, §3, §4, §6
# [5] = molecular target: T1, E. coli FabI (Escherichia coli, UniProt P0AEK4); experiment: In vitro FabI enzymatic inhibition assay; type: biochemical; settings: EcFabI; Morrison's quadratic fit; 5 nM enzyme; read-out: Ki app
# T1 construct: His(6) with TEV site (cleaved yes); made in house; host or cells: E. coli BL21(DE3)
# T1 sequence (P0AEK4 whole entry): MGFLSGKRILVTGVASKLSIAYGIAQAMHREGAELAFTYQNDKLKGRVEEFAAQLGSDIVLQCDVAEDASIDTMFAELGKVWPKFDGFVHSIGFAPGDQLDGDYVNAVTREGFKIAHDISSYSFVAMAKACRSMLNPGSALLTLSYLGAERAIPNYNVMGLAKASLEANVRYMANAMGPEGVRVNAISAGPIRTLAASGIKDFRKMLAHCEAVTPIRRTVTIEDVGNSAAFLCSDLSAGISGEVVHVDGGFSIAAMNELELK
# Method: (§7) supplemented with 100 µg/mL ampicillin at 37°C until OD600 reached 0.6-0.7. The cells were induced with 1mM IPTG and incubated for 20 hours at 18°C and spun down at 8000 rpm for 15 minutes. Cell pellet was resuspended in the lysis buffer (50 mM Tris-HCl pH 8.0, 500 mM Na Cl, 20 mM imidazole, 10% glycerol, 0.5 mM TCEP, protease inhibitor and Lysonase) and passed through microfluidizer followed by centrifugation and filtration to remove cell debris. The clarified lysate was supplemented with 20 mM imidazole and passed over a HisTrap column (Cytiva) pre-equilibrated with the wash buffer (50 mM Tris-HCl pH 8.0, 500 mM NaCl, 20 mM imidazole, 10% glycerol, 0.5 mM TCEP). The column was washed with the wash buffer and eluted over a 20-500 mM imidazole gradient. The appropriate fractions were pooled, and the histidine tag was removed by TEV cleavage. The protein mixture was passed over a HisTrap column to separate the cleaved protein from the uncleaved ones. The cleaved protein was pooled and passed over an S75 size exclusion column (GE LifeSciences) pre-equilibrated with 50 mM Tris-HCl pH 8.0, 500 mM NaCl, 0.5 mM TCEP and 10% glycerol. Fractions containing pure protein were pooled, concentrated at 10 mg/mL and stored at -80°C. […]
# (§8) In vitro FabI enzymatic inhibition assay
# (§9) Recombinant E. coli and A. baummani FabI enzymes were used in a continuous NADH absorbance assay (20 µL in 384w format). Compounds and the Crotonyl-CoA substrate (Sigma–Aldrich 28007) were dispensed into a plate (GeinerBio-One 781101). The reaction was initiated by the addition of a reaction master mix solution containing enzyme and NADH (Sigma–Aldrich N8129) suspended in reaction buffer (50 mM HEPES pH 7.4, 150 mM NaCl, 1 mM EDTA, 0.01 mg/mL BSA, 0.01% Tween). Final concentrations were 5 nM enzyme, 150 μM Crotonyl-CoA, 380 μM NADH, 0.05% DMSO in 1x reaction buffer. After shaking for 5 seconds the reaction was monitored at NADH absorbance (340nm, 25°C) using a Molecular Devices SpectraMax M5 microplate reader. The linear portion of the progress curve was fit using plate-reader software. Percentage activity was calculated relative to DMSO only and no-substrate controls in each plate and the data were fit to Morrison’s quadratic using Graphpad Prism 9.3 to obtain apparent inhibition constant (Ki app) values. […]
# (§10) 480 Real-Time PCR System as a function of a temperature ramp (25-95°C; 0.1°/s) and the Tm was calculated using the […]
# [6] = molecular target: A. baumannii FabI (Acinetobacter baumannii, UniProt D0CAD5); experiment: In vitro FabI enzymatic inhibition assay; type: biochemical; settings: AbFabI; Morrison's quadratic fit; 5 nM enzyme; read-out: Ki app
# Chain of A. baumannii FabI (D0CAD5 entry or part of it): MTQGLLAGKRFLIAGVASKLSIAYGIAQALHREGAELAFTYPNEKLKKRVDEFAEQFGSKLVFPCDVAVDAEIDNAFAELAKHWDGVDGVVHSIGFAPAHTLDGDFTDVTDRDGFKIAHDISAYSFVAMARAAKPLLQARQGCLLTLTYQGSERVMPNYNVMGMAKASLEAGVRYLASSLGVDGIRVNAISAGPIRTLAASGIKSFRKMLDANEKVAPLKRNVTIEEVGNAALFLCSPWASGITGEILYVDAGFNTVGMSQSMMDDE
# Method: as §7, §8, §9, §10
# [7] = tested on: A. baumannii AR-0033; experiment: MIC, broth microdilution (CLSI); type: cell-based; settings: Acinetobacter baumannii, AR0033; A. baumannii AR-0033 clinical isolate; † = dose-independent trailing growth
# Method: as §1, §2, §3, §4, §5
# [8] = tested on: K. pneumoniae AR-0560; experiment: MIC, broth microdilution (CLSI); type: cell-based; settings: Klebsiella pneumoniae, AR0560; K. pneumoniae AR-0560 clinical isolate
# Method: as §1, §2, §3, §4, §5
# [9] = tested on: S. aureus ATCC 29213; experiment: MIC, broth microdilution (CLSI); type: cell-based; settings: Staphylococcus aureus, ATCC29213; S. aureus 29213
# Method: as §1, §2, §3, §4, §5
# [10] = tested on: E. coli AR-0048; experiment: MIC, broth microdilution (CLSI); type: cell-based; settings: Escherichia coli, AR0048; E. coli AR-0048 clinical isolate
# Method: as §1, §2, §3, §4, §5
# [11] = tested on: K. pneumoniae AR-0066; experiment: MIC, broth microdilution (CLSI); type: cell-based; settings: Klebsiella pneumoniae, AR0066; K. pneumoniae AR-0066 clinical isolate
# Method: as §1, §2, §3, §4, §5
# [12] = tested on: K. pneumoniae BAA-2472; experiment: MIC, broth microdilution (CLSI); type: cell-based; settings: Klebsiella pneumoniae, BAA2472
# Method: as §1, §2, §3, §4, §5
# [13] = tested on: A. baumannii AR-0299; experiment: MIC, broth microdilution (CLSI); type: cell-based; settings: Acinetobacter baumannii, AR0299; A. baumannii AR-0299 clinical isolate; † = dose-independent trailing growth
# Method: as §1, §2, §3, §4, §5
# [14] = tested on: A. baumannii AR-0273; experiment: MIC, broth microdilution (CLSI); type: cell-based; settings: Acinetobacter baumannii, AR0273; A. baumannii AR-0273 clinical isolate
# Method: as §1, §2, §3, §4, §5
# [15] = tested on: E. coli AR-0085; experiment: MIC, broth microdilution (CLSI); type: cell-based; settings: Escherichia coli, AR0085; E. coli AR-0085 clinical isolate
# Method: as §1, §2, §3, §4, §5
# [16] = tested on: E. coli MG1655; experiment: MIC, broth microdilution (CLSI); type: cell-based; settings: Escherichia coli
# Method: as §1, §2, §3, §4, §5
structure (smiles),measurement,setting,value
Cc1c(CN(C)C(=O)/C=C/c2cnc3c(c2)CC[C@H](NC(=O)OC(C)(C)C)C(=O)N3)oc2ccccc12 [(S)-11],aqueous solubility,[1],limited aqueous solubility
same,MIC,[2],0.125 µg/mL
same,MIC,[3],64 µg/mL
same,MIC,[4],32 µg/mL
same,Ki,[5],60 ± 10 nM
same,Ki,[6],947 ± 234 nM
same,MIC,[7],64 µg/mL
same,MIC,[8],32 µg/mL
same,MIC,[9],0.016 µg/mL
same,MIC,[10],16 µg/mL
same,MIC,[11],64 µg/mL
same,MIC,[12],32 µg/mL
same,MIC,[13],8 µg/mL
same,MIC,[14],8 µg/mL
same,MIC,[15],8 µg/mL
same,MIC,[16],8 µg/mL

# — paper PMC9413440, “An Iterative Approach Guides Discovery of the FabI Inhibitor Fabimycin, a Late-Stage Antibiotic Candidate with In Vivo Efficacy against Drug-Resistant Gram-Negative Infections” (ACS Central Science, 2022)
